Reference: patent US10383859B2, “Benzo[d]thiazole derivative or salt thereof, and pharmaceutical composition including same” (Yuhan Corporation, priority 2016, dated 2019)
Where two headings read alike, the source gives them in different places.

Test system: A549 cells
Assay: Cell migration assay (24-well transwell, laminin)
Type: cell-based, human
Details: laminin 10 μg/mL in lower well, test compounds 0.39˜100 μM, migrated cells counted, read-out: Inhibitory activity against cell migration
Protocol: Cell migration was measured with a 24-well transwell having a polycarbonate membrane (8.0 μm pore size, Costar) at the bottom of the upper chamber. Each lower well was treated with laminin (10 μg/mL) and test compounds in predetermined concentrations (0.39˜100 μM) along with a serum-free RPMI1640 medium. A549 cells (Korean Cell Line Bank) were suspended in a serum-free RPMI1640 medium at a concentration of 1×10^6 cells/mL and then the test compounds were added thereto at the indicated concentrations. Each resulting solution (100 μL) was added to the upper chamber. The cells were cultured at 37° C. for 6 hours in a CO2 incubator. The upper chamber was taken out and then the cells were fixed with PBS containing 70% methyl alcohol for 10 minutes, followed by washing with PBS twice. The cells were stained with hematoxylin (Sigma) for 10 minutes and then washed with distilled water. The non-migrated cells were removed from the upper portion of the polycarbonate membrane with a cotton swab. The membranes were excised and separated from the chamber, and then mounted to a slide using a gel mount reagent (Biomeda, USA). The migrated cells (attached to the lower face of the membrane) were counted at three randomly selected sites under a microscope (×20). The cell counting was performed with the Image J program. From the counted cell numbers, each IC50 value was calculated by non-linear regression curve fit using the “GraphPad Prism” program.
The cells are pulled by laminin residing in the lower chamber and then passed through the polycarbonate membrane, so as to attach to the lower face of the membrane.

| Compound | IC50 (Homo sapiens, A549, 6 h) | IC50 (6 hours) |
| --- | --- | --- |
| O=C(O)c1ccc(CN(CCc2cc(F)c(F)c(F)c2)c2nc3cccc(F)c3s2)cc1 [Example 36, 4-({(7-fluorobenzo[d]thiazol-2-yl)[2-(3,4,5-trifluorophenyl)ethyl]amino}methyl)benzoic acid] | > 10 µM | – |
| COc1ccc(CCN(Cc2ccc(C(=O)O)cc2)c2nc3cccc(F)c3s2)cc1Br [Example 37, 4-({[2-(3-bromo-4-methoxyphenyl)ethyl](7-fluorobenzo[d]thiazol-2-yl)amino}methyl)benzoic acid] | > 10 µM | – |
| O=C(O)c1ccc(CN(CCc2ccc(Cl)cc2Cl)c2nc3cccc(F)c3s2)cc1 [Example 38, 4-({[2-(2,4-dichlorophenyl)ethyl](7-fluorobenzo[d]thiazol-2-yl)amino}methyl)benzoic acid] | > 10 µM | – |
| O=C(O)c1ccc(CN(CCc2ccc(F)cc2F)c2nc3cccc(F)c3s2)cc1 [Example 39, 4-({[2-(2,4-difluorophenyl)ethyl](7-fluorobenzo[d]thiazol-2-yl)amino}methyl)benzoic acid] | > 10 µM | – |
| O=C(O)c1ccc(CN(CCc2ccccc2F)c2nc3cccc(F)c3s2)cc1 [Example 41, 4-({(7-fluorobenzo[d]thiazol-2-yl)[2-(2-fluorophenyl)ethyl]amino}methyl)benzoic acid] | > 10 µM | – |
| COc1cccc(CCN(Cc2ccc(C(=O)O)cc2)c2nc3cccc(F)c3s2)c1 [Example 42, 4-({(7-fluorobenzo[d]thiazol-2-yl)[2-(3-methoxyphenyl)ethyl]amino}methyl)benzoic acid] | – | > 10 µM |
| COc1ccc(CCN(Cc2ccc(C(=O)O)cc2)c2nc3cccc(F)c3s2)c(F)c1F [Example 43, 4-({[2-(2,3-difluoro-4-methoxyphenyl)ethyl](7-fluorobenzo[d]thiazol-2-yl)amino}methyl)benzoic acid] | < 1 µM | – |
| COc1cc(C)c(CCN(Cc2ccc(C(=O)O)cc2)c2nc3cccc(F)c3s2)cc1C(C)C [Example 44, 4-{[(7-fluorobenzo[d]thiazol-2-yl){2-[4-methoxy-2-methyl-5-(propan-2-yl)phenyl]ethyl}amino]methyl}benzoic acid] | > 10 µM | – |
| COc1cc(F)c(CCN(Cc2ccc(C(=O)O)cc2)c2nc3cccc(F)c3s2)cc1F [Example 45, 4-({[2-(2,5-difluoro-4-methoxyphenyl)ethyl](7-fluorobenzo[d]thiazol-2-yl)amino}methyl)benzoic acid] | < 1 µM | – |
| COc1ccc(CCN(Cc2ccc(C(=O)O)cc2)c2nc3cccc(F)c3s2)c(Cl)c1 [Example 46, 4-({[2-(2-chloro-4-methoxyphenyl)ethyl](7-fluorobenzo[d]thiazol-2-yl)amino}methyl)benzoic acid] | > 10 µM | – |
| COc1ccc(CCN(Cc2ccc(C(=O)O)cc2)c2nc3cccc(F)c3s2)c(C)c1C [Example 47, 4-({(7-fluorobenzo[d]thiazol-2-yl)[2-(4-methoxy-2,3-dimethylphenyl)ethyl]amino}methyl)benzoic acid] | > 10 µM | – |
| COc1cc(C)c(CCN(Cc2ccc(C(=O)O)cc2)c2nc3cccc(F)c3s2)cc1C [Example 48, 4-({(7-fluorobenzo[d]thiazol-2-yl)[2-(4-methoxy-2,5-dimethylphenyl)ethyl]amino}methyl)benzoic acid] | < 1 µM | – |
| COc1ccc(CCN(Cc2ccc(C(=O)O)cc2)c2nc3cccc(F)c3s2)cc1C [Example 49, 4-({(7-fluorobenzo[d]thiazol-2-yl)[2-(4-methoxy-3-methylphenyl)ethyl]amino}methyl)benzoic acid] | < 1 µM | – |
| COc1ccc(CCN(Cc2ccc(C(=O)O)cc2)c2nc3cccc(F)c3s2)c(C)c1 [Example 50, 4-({(7-fluorobenzo[d]thiazol-2-yl)[2-(4-methoxy-2-methylphenyl)ethyl]amino}methyl)benzoic acid] | < 1 µM | – |
| COc1cc(F)c(CCN(Cc2ccc(C(=O)O)cc2)c2nc3cccc(F)c3s2)c(F)c1 [Example 51, 4-({[2-(2,6-difluoro-4-methoxyphenyl)ethyl](7-fluorobenzo[d]thiazol-2-yl)amino}methyl)benzoic acid] | < 1 µM | – |
| COc1ccc(CCN(c2nc3cccc(F)c3s2)C(C)c2ccc(C(=O)O)cc2)cc1 (stereo not drawn) [Example 52, 4-(1-{(7-fluorobenzo[d]thiazol-2-yl)[2-(4-methoxyphenyl)ethyl]amino}ethyl)benzoic acid] | < 1 µM | – |
| CCC(c1ccc(C(=O)O)cc1)N(CCc1ccc(OC)cc1)c1nc2cccc(F)c2s1 (stereo not drawn) [Example 53, 4-(1-{(7-fluorobenzo[d]thiazol-2-yl)[2-(4-methoxyphenyl)ethyl]amino}propyl)benzoic acid] | < 1 µM | – |

| Compound | IC50 (Homo sapiens, A549, 6 h) | IC50 (6 hours) |
| --- | --- | --- |
| COc1ccc(CCN(c2nc3cccc(F)c3s2)C(C)c2ccc(C(=O)O)cc2)cc1F (stereo not drawn) [Example 54, 4-(1-{(7-fluorobenzo[d]thiazol-2-yl)[2-(3-fluoro-4-methoxyphenyl)ethyl]amino}ethyl)benzoic acid] | > 10 µM | – |
| COc1ccc(CCN(c2nc3cccc(F)c3s2)C(C)c2ccc(C(=O)O)cc2)cc1Br (stereo not drawn) [Example 55, 4-(1-{[2-(3-bromo-4-methoxyphenyl)ethyl](7-fluorobenzo[d]thiazol-2-yl)amino}ethyl)benzoic acid] | > 10 µM | – |
| CC(c1ccc(C(=O)O)cc1)N(CCc1ccc(F)cc1F)c1nc2cccc(F)c2s1 (stereo not drawn) [Example 56, 4-(1-{[2-(2,4-difluorophenyl)ethyl](7-fluorobenzo[d]thiazol-2-yl)amino}ethyl)benzoic acid] | > 10 µM | – |
| CC(c1ccc(C(=O)O)cc1)N(CCc1cccc(F)c1F)c1nc2cccc(F)c2s1 (stereo not drawn) [Example 57, 4-(1-{[2-(2,3-difluorophenyl)ethyl](7-fluorobenzo[d]thiazol-2-yl)amino}ethyl)benzoic acid] | > 10 µM | – |
| CC(c1ccc(C(=O)O)cc1)N(CCc1cc(F)c(F)c(F)c1)c1nc2cccc(F)c2s1 (stereo not drawn) [Example 58, 4-(1-{(7-fluorobenzo[d]thiazol-2-yl)[2-(3,4,5-trifluorophenyl)ethyl]amino}ethyl)benzoic acid] | > 10 µM | – |
| CC(c1ccc(C(=O)O)cc1)N(CCc1ccc(Cl)cc1Cl)c1nc2cccc(F)c2s1 (stereo not drawn) [Example 59, 4-(1-{[2-(2,4-dichlorophenyl)ethyl](7-fluorobenzo[d]thiazol-2-yl)amino}ethyl)benzoic acid] | > 10 µM | – |
| COc1ccc(CCN(c2nc3cccc(F)c3s2)C(C)c2ccc(C(=O)O)cc2)c(F)c1F (stereo not drawn) [Example 60, 4-(1-{[2-(2,3-difluoro-4-methoxyphenyl)ethyl](7-fluorobenzo[d]thiazol-2-yl)amino}ethyl)benzoic acid] | < 1 µM | – |
| COc1cc(F)c(CCN(c2nc3cccc(F)c3s2)C(C)c2ccc(C(=O)O)cc2)cc1F (stereo not drawn) [Example 61, 4-(1-{[2-(2,5-difluoro-4-methoxyphenyl)ethyl](7-fluorobenzo[d]thiazol-2-yl)amino}ethyl)benzoic acid] | < 1 µM | – |
| COc1cc(C)c(CCN(c2nc3cccc(F)c3s2)C(C)c2ccc(C(=O)O)cc2)cc1C(C)C (stereo not drawn) [Example 62, 4-{1-[(7-fluorobenzo[d]thiazol-2-yl){2-[4-methoxy-2-methyl-5-(propan-2-yl)phenyl]ethyl}amino]ethyl}benzoic acid] | > 10 µM | – |
| COc1ccc(CCN(c2nc3cccc(F)c3s2)C(C)c2ccc(C(=O)O)cc2)c(C)c1C (stereo not drawn) [Example 63, 4-(1-{(7-fluorobenzo[d]thiazol-2-yl)[2-(4-methoxy-2,3-dimethylphenyl)ethyl]amino}ethyl)benzoic acid] | < 1 µM | – |
| COc1cc(C)c(CCN(c2nc3cccc(F)c3s2)C(C)c2ccc(C(=O)O)cc2)cc1C (stereo not drawn) [Example 64, 4-(1-{(7-fluorobenzo[d]thiazol-2-yl)[2-(4-methoxy-2,5-dimethylphenyl)ethyl]amino}ethyl)benzoic acid] | < 1 µM | – |
| COc1ccc(CCN(c2nc3cccc(F)c3s2)C(C)c2ccc(C(=O)O)cc2)cc1C (stereo not drawn) [Example 65, 4-(1-{(7-fluorobenzo[d]thiazol-2-yl)[2-(4-methoxy-3-methylphenyl)ethyl]amino}ethyl)benzoic acid] | < 1 µM | – |
| COc1ccc(CCN(c2nc3cccc(F)c3s2)C(C)c2ccc(C(=O)O)cc2)c(C)c1 (stereo not drawn) [Example 66, 4-(1-{(7-fluorobenzo[d]thiazol-2-yl)[2-(4-methoxy-2-methylphenyl)ethyl]amino}ethyl)benzoic acid] | < 1 µM | – |
| COc1cc(F)c(CCN(c2nc3cccc(F)c3s2)C(C)c2ccc(C(=O)O)cc2)c(F)c1 (stereo not drawn) [Example 67, 4-(1-{[2-(2,6-difluoro-4-methoxyphenyl)ethyl](7-fluorobenzo[d]thiazol-2-yl)amino}ethyl)benzoic acid] | < 1 µM | – |
| CCC(c1ccc(C(=O)O)cc1)N(CCc1ccc(OC)c(F)c1F)c1nc2cccc(F)c2s1 (stereo not drawn) [Example 68, 4-(1-{[2-(2,3-difluoro-4-methoxyphenyl)ethyl](7-fluorobenzo[d]thiazol-2-yl)amino}propyl)benzoic acid] | < 1 µM | – |
| CCC(c1ccc(C(=O)O)cc1)N(CCc1cc(F)c(OC)cc1F)c1nc2cccc(F)c2s1 (stereo not drawn) [Example 69, 4-(1-{[2-(2,5-difluoro-4-methoxyphenyl)ethyl](7-fluorobenzo[d]thiazol-2-yl)amino}propyl)benzoic acid] | > 10 µM | – |
